Results taken from patent US20230114627A1, “COMPOSITION COMPRISING A METAL ASCORBO-CAMPHORATE COMPOUND AND METHOD FOR PREVENTION AND/OR TREATMENT OF PAPILLOMAVIRUS INFECTIONS” (MGB PHARMA Inc., priority 2020, published 2023).

Test system: HEC-1A cells
Assay: Cytokine/chemokine MultiPlex assay (BioPlex 200) of HEC-1A secretion
Assay type: cell-based
Conditions: 24 hours
Source text: In the model as provided in this example, a method to assess the pro-inflammatory character of antivirals intended to be applied as mucosal topicals was used.
Epithelial cells are capable of secreting a set of molecules called cytokines and chemokines, which are responsible for the recruitment and activation of immune cells at the site of secretion. This process can be deleterious in the context of sexual transmission of HIV-1 because the recruited cells are the preferred targets of the virus. […] A microbicide candidate should therefore not promote inflammation by activating the production of this type of molecule by the cells directly in contact with the substance (epithelial cells). These secretions can be deleterious in the context of sexual transmission of HIV-1 or HPV and other papillomaviruses because the recruited cells are the preferred targets of the virus. A microbicide candidate must thus not promote inflammation by activating the production of these types of molecules by the cells in contact with the substance (epithelial cells).
After 24 hours of incubation, a panel of 48 inflammation-related cytokines/chemokines is assayed by MultiPlex (BioPlex 200 BioRad) in the basal medium.

In the case of zinc tetra-ascorbo-camphorate [C14], the IL-12ρ40 (10 μM) is reported as 0 pg/mL, the IL-13 (10 μM) is reported as 4.145 pg/mL and the IL-15 (10 μM) is reported as 0 pg/mL. It also gave an IL-16 (10 μM) of 0 pg/mL, an IL-17 (10 μM) of 0 pg/mL and an IL-18 (10 μM) of 0 pg/mL. The IP-10 (10 μM) was 7.165 pg/mL, the LIF (10 μM) was 0 pg/mL and the M-CSF (10 μM) was 4.805 pg/mL. The MCP-1 (10 μM) was 7.55 pg/mL, the MCP-3 (10 μM) was 0 pg/mL and the MIF (10 μM) was 1.06 pg/mL. The MIG (10 μM) was 3.76 pg/mL, the MIP-1α (10 μM) was 2.065 pg/mL and the MIP-1β (10 μM) was 1.555 pg/mL. It also gave a PDGF-β (10 μM) of 2.805 pg/mL, an RANTES (10 μM) of 12.995 pg/mL and an SCF (10 μM) of 0 pg/mL. It also gave an SCGF-β (10 μM) of 255.82 pg/mL, an SDF-1α (10 μM) of 11.41 pg/mL and a TNF-α (10 μM) of 6.985 pg/mL. The TNF-β (10 μM) was 0 pg/mL, the TRAIL (10 μM) was 5.025 pg/mL and the VEGF (10 μM) was 1530.905 pg/mL. It also gave a β-NGF (10 μM) of 0.86 pg/mL, a CTACK (100 μM) of 2.585 pg/mL and an Eotaxin (100 μM) of 0 pg/mL. It also gave an FGF (100 μM) of 1.635 pg/mL, a G-CSF (100 μM) of 1.885 pg/mL and a GM-CSF (100 μM) of 9.51 pg/mL. The GROα (100 μM) was 0 pg/mL, the HGF (100 μM) was 4.58 pg/mL and the IFN-α2 (100 μM) was 4.08 pg/mL. The IFN-γ (100 μM) was 89.85 pg/mL, the IL-1rα (100 μM) was 10.3 pg/mL and the IL-1α (100 μM) was 0 pg/mL. It also gave an IL-1β (100 μM) of 0.34 pg/mL, an IL-2 (100 μM) of 0.02 pg/mL and an IL-2rα (100 μM) of 3.245 pg/mL. For the same substance, the IL-3 (100 μM) was 5.495 pg/mL, the IL-4 (100 μM) was 0.33 pg/mL and the IL-5 (100 μM) was 0 pg/mL. It also gave an IL-6 (100 μM) of 0.255 pg/mL, an IL-7 (100 μM) of 4.495 pg/mL and an IL-8 (100 μM) of 783.255 pg/mL. For the same substance, the IL-9 (100 μM) was 22.305 pg/mL, the IL-10 (100 μM) was 3.505 pg/mL and the IL-12 (100 μM) was 99.355 pg/mL. It also gave an IL-12ρ40 (100 μM) of 0 pg/mL, an IL-13 (100 μM) of 3.735 pg/mL and an IL-15 (100 μM) of 0 pg/mL. It also gave an IL-16 (100 μM) of 0 pg/mL, an IL-17 (100 μM) of 0 pg/mL and an IL-18 (100 μM) of 0 pg/mL. The IP-10 (100 μM) was 0 pg/mL, the LIF (100 μM) was 0 pg/mL and the M-CSF (100 μM) was 4.725 pg/mL. The MCP-1 (100 μM) was 5.3 pg/mL, the MCP-3 (100 μM) was 0 pg/mL and the MIF (100 μM) was 1.06 pg/mL. It also gave an MIG (100 μM) of 2.75 pg/mL, an MIP-1α (100 μM) of 1.77 pg/mL and an MIP-1β (100 μM) of 1.26 pg/mL. For the same substance, the PDGF-β (100 μM) was 3.58 pg/mL, the RANTES (100 μM) was 12.205 pg/mL and the SCF (100 μM) was 0 pg/mL. For the same substance, the SCGF-β (100 μM) was 228.825 pg/mL, the SDF-1α (100 μM) was 11.41 pg/mL and the TNF-α (100 μM) was 5.465 pg/mL. For the same substance, the TNF-β (100 μM) was 0 pg/mL, the TRAIL (100 μM) was 5.025 pg/mL and the VEGF (100 μM) was 1469.495 pg/mL. The β-NGF (100 μM) was 0.95 pg/mL, the CTACK (500 μM) was 3.425 pg/mL and the Eotaxin (500 μM) was 3.21 pg/mL. It also gave an FGF (500 μM) of 1.925 pg/mL, a G-CSF (500 μM) of 2.3 pg/mL and a GM-CSF (500 μM) of 7.53 pg/mL. The GROα (500 μM) was 2.75 pg/mL, the HGF (500 μM) was 6.22 pg/mL and the IFN-α2 (500 μM) was 3.58 pg/mL. The IFN-γ (500 μM) was 98.775 pg/mL, the IL-1rα (500 μM) was 14.09 pg/mL and the IL-1α (500 μM) was 0 pg/mL. The IL-1β (500 μM) was 0.415 pg/mL, the IL-2 (500 μM) was 0.28 pg/mL and the IL-2rα (500 μM) was 4.39 pg/mL. It also gave an IL-3 (500 μM) of 6.785 pg/mL, an IL-4 (500 μM) of 0.295 pg/mL and an IL-5 (500 μM) of 0 pg/mL. It also gave an IL-6 (500 μM) of 0.79 pg/mL, an IL-7 (500 μM) of 4.66 pg/mL and an IL-8 (500 μM) of 1219.13 pg/mL. It also gave an IL-9 (500 μM) of 30.4 pg/mL, an IL-10 (500 μM) of 4.165 pg/mL and an IL-12 (500 μM) of 121.285 pg/mL. It also gave an IL-12ρ40 (500 μM) of 0 pg/mL, an IL-13 (500 μM) of 4.555 pg/mL and an IL-15 (500 μM) of 0 pg/mL. For the same substance, the IL-16 (500 μM) was 0 pg/mL, the IL-17 (500 μM) was 0 pg/mL and the IL-18 (500 μM) was 0 pg/mL. The IP-10 (500 μM) was 10.765 pg/mL, the LIF (500 μM) was 0 pg/mL and the M-CSF (500 μM) was 3.995 pg/mL. The MCP-1 (500 μM) was 5.165 pg/mL, the MCP-3 (500 μM) was 0 pg/mL and the MIF (500 μM) was 5.26 pg/mL. It also gave an MIG (500 μM) of 3.09 pg/mL, an MIP-1α (500 μM) of 2.04 pg/mL and an MIP-1β (500 μM) of 1.655 pg/mL. The PDGF-β (500 μM) was 6.19 pg/mL, the RANTES (500 μM) was 13.835 pg/mL and the SCF (500 μM) was 0 pg/mL. It also gave an SCGF-β (500 μM) of 128.865 pg/mL, an SDF-1α (500 μM) of 11.41 pg/mL and a TNF-α (500 μM) of 10.49 pg/mL. It also gave a TNF-β (500 μM) of 0 pg/mL, a TRAIL (500 μM) of 3.43 pg/mL and a VEGF (500 μM) of 1814.38 pg/mL. For the same substance, the β-NGF (500 μM) was 0.995 pg/mL.
